PubChem BioAssay AID2060492 (Molecular Pharmacology Branch, DTP, NCI, 2025)

System: 695427-040-R-J1-PDC complex spheroids, viability percent T/C
Test: Anticancer human tumor 695427-040-R-J1-PDC patient-derived colon adenocarcinoma cell line growth inhibition [GQUAD]
Details: for IC50: curve of first compound; for viability, T/C: stronger effect = lower value
Method in brief: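 Viability of tumor cells grown as complex spheroids with endothelial and stromal cells, exposed to drug combinations. Top concentration at or near clinical Cmax (else 10 microM), diluted in half-log increments.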

[1] = second compound 0.0316 µM, first compound 0.0316 µM
[2] = second compound 0.0316 µM, first compound 0.316 µM
[3] = second compound 0.1 µM, first compound 0.0316 µM
[4] = second compound 0.1 µM, first compound 0.316 µM
[5] = second compound 0.316 µM, first compound 0.0316 µM
[6] = second compound 0.316 µM, first compound 0.316 µM
[7] = second compound 1 µM, first compound 0.0316 µM
[8] = second compound 1 µM, first compound 0.316 µM
[9] = second compound 3.16 µM, first compound 0.0316 µM
[10] = second compound 3.16 µM, first compound 0.316 µM
[11] = second compound 10 µM, first compound 0.0316 µM
[12] = second compound 10 µM, first compound 0.316 µM
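Further: spheroids exposed to compounds for seven days before readout.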

`CCc1c2c(nc3ccc(O)cc13)-c1cc3c(c(=O)n1C2)COC(=O)[C@]3(O)CC` + Cc1[nH]c2ccc(F)cc2c1-c1nc2c3cccnc3c3ncccc3c2[nH]1 was tested, and the IC50 (second compound 0.0316 µM) was 168 nM, the IC50 (second compound 0.1 µM) was 161 nM and the IC50 (second compound 0.316 µM) was 112 nM. The IC50 (second compound 1 µM) was 106 nM, the IC50 (second compound 3.16 µM) was 82.4 nM and the IC50 (second compound 10 µM) was 106 nM. It also gave a viability, T/C (second compound 0.0316 µM, first compound 0.000999 µM) of 95.4%, a viability, T/C (second compound 0.0316 µM, first compound 0.00316 µM) of 74% and a viability, T/C (second compound 0.0316 µM, first compound 0.00999 µM) of 87.9%. For the same molecule, the viability, T/C [1] was 57.8%, the viability, T/C (second compound 0.0316 µM, first compound 0.0999 µM) was 62% and the viability, T/C [2] was 40.8%. For the same molecule, the viability, T/C (second compound 0.1 µM, first compound 0.000999 µM) was 93.7%, the viability, T/C (second compound 0.1 µM, first compound 0.00316 µM) was 71.6% and the viability, T/C (second compound 0.1 µM, first compound 0.00999 µM) was 80.2%. For the same molecule, the viability, T/C [3] was 57.7%, the viability, T/C (second compound 0.1 µM, first compound 0.0999 µM) was 57.6% and the viability, T/C [4] was 43%. The viability, T/C (second compound 0.316 µM, first compound 0.000999 µM) was 99.5%, the viability, T/C (second compound 0.316 µM, first compound 0.00316 µM) was 64.2% and the viability, T/C (second compound 0.316 µM, first compound 0.00999 µM) was 82.2%. For the same molecule, the viability, T/C [5] was 63.2%, the viability, T/C (second compound 0.316 µM, first compound 0.0999 µM) was 56.1% and the viability, T/C [6] was 34.5%. The viability, T/C (second compound 1 µM, first compound 0.000999 µM) was 67.7%, the viability, T/C (second compound 1 µM, first compound 0.00316 µM) was 85.8% and the viability, T/C (second compound 1 µM, first compound 0.00999 µM) was 82%. It also gave a viability, T/C [7] of 64.6%, a viability, T/C (second compound 1 µM, first compound 0.0999 µM) of 52.5% and a viability, T/C [8] of 37.6%. It also gave a viability, T/C (second compound 3.16 µM, first compound 0.000999 µM) of 72%, a viability, T/C (second compound 3.16 µM, first compound 0.00316 µM) of 74.5% and a viability, T/C (second compound 3.16 µM, first compound 0.00999 µM) of 63.5%. For the same molecule, the viability, T/C [9] was 59.5%, the viability, T/C (second compound 3.16 µM, first compound 0.0999 µM) was 48.7% and the viability, T/C [10] was 33.2%. For the same molecule, the viability, T/C (second compound 10 µM, first compound 0.000999 µM) was 71.9%, the viability, T/C (second compound 10 µM, first compound 0.00316 µM) was 72.2% and the viability, T/C (second compound 10 µM, first compound 0.00999 µM) was 66.4%. It also gave a viability, T/C [11] of 60.8%, a viability, T/C (second compound 10 µM, first compound 0.0999 µM) of 49.8% and a viability, T/C [12] of 37.4%.
With `COc1cc(C2c3cc4c(cc3C(OC3OC5COC(C)OC5C(O)C3O)C3COC(=O)C23)OCO4)cc(OC)c1O` (centres undefined) + Cc1[nH]c2ccc(F)cc2c1-c1nc2c3cccnc3c3ncccc3c2[nH]1 the IC50 (second compound 0.0316 µM) was > 10000 nM, the IC50 (second compound 0.1 µM) was > 10000 nM and the IC50 (second compound 0.316 µM) was > 10000 nM. For the same molecule, the IC50 (second compound 1 µM) was > 10000 nM, the IC50 (second compound 3.16 µM) was > 10000 nM and the IC50 (second compound 10 µM) was > 10000 nM. For the same molecule, the viability, T/C [1] was 118%, the viability, T/C (second compound 0.0316 µM, first compound 0.1 µM) was 90.7% and the viability, T/C [2] was 105%. It also gave a viability, T/C (second compound 0.0316 µM, first compound 1 µM) of 102%, a viability, T/C (second compound 0.0316 µM, first compound 3.16 µM) of 87.4% and a viability, T/C (second compound 0.0316 µM, first compound 10 µM) of 78.1%. The viability, T/C [3] was 110%, the viability, T/C (second compound 0.1 µM, first compound 0.1 µM) was 92.6% and the viability, T/C [4] was 113%. For the same molecule, the viability, T/C (second compound 0.1 µM, first compound 1 µM) was 68.8%, the viability, T/C (second compound 0.1 µM, first compound 3.16 µM) was 84.1% and the viability, T/C (second compound 0.1 µM, first compound 10 µM) was 76.7%. For the same molecule, the viability, T/C [5] was 112%, the viability, T/C (second compound 0.316 µM, first compound 0.1 µM) was 83.3% and the viability, T/C [6] was 80.3%. For the same molecule, the viability, T/C (second compound 0.316 µM, first compound 1 µM) was 87.3%, the viability, T/C (second compound 0.316 µM, first compound 3.16 µM) was 85.8% and the viability, T/C (second compound 0.316 µM, first compound 10 µM) was 74.1%. The viability, T/C [7] was 91.9%, the viability, T/C (second compound 1 µM, first compound 0.1 µM) was 95.4% and the viability, T/C [8] was 90.5%. The viability, T/C (second compound 1 µM, first compound 1 µM) was 87.6%, the viability, T/C (second compound 1 µM, first compound 3.16 µM) was 91.5% and the viability, T/C (second compound 1 µM, first compound 10 µM) was 71.2%. The viability, T/C [9] was 81.2%, the viability, T/C (second compound 3.16 µM, first compound 0.1 µM) was 85.9% and the viability, T/C [10] was 82.7%. The viability, T/C (second compound 3.16 µM, first compound 1 µM) was 82.7%, the viability, T/C (second compound 3.16 µM, first compound 3.16 µM) was 81.3% and the viability, T/C (second compound 3.16 µM, first compound 10 µM) was 69%. The viability, T/C [11] was 65.9%, the viability, T/C (second compound 10 µM, first compound 0.1 µM) was 74.3% and the viability, T/C [12] was 87%. For the same molecule, the viability, T/C (second compound 10 µM, first compound 1 µM) was 83.8%, the viability, T/C (second compound 10 µM, first compound 3.16 µM) was 68.7% and the viability, T/C (second compound 10 µM, first compound 10 µM) was 64.3%.
